Test results: patent publication US10660900B2 (priority 2014, dated 2020)
“Also recorded” adds a separate entry of the source.

Assays:
[1] = Cold pressor test in healthy volunteers; type: in vivo, human; conditions: 3-60 mg single oral doses versus placebo; hand immersion duration and VAS pain score
Experimental: Analgesic effect was assessed based on duration of hand immersion in ice water and on visual analog scale (VAS) pain scores upon hand removal from the water bath.
(§1) Safety and tolerability of noribogaine were tested in the group of volunteers from Example 1. Cold pressor testing was conducted in 1° C. water according to the method of Mitchell et al. (J Pain 5:233-237, 2004) pre-dose, 6, 24, 48, 72 and 216 hours post-dosing. Safety evaluations included clinical monitoring, recording of adverse events (AEs), safety laboratory tests, vital signs, ECG telemetry from −2 h to 6 h after dosing, and 12-lead electrocardiograms (ECGs) up to 216 hours post-dosing.

human OPRK = assay: biochemical; type: binding
OPRK = OPRK (Homo sapiens, UniProt P41145); assay: cell-based; set-up: host or cells: CHO-K1
Chain of OPRK (P41145 whole entry): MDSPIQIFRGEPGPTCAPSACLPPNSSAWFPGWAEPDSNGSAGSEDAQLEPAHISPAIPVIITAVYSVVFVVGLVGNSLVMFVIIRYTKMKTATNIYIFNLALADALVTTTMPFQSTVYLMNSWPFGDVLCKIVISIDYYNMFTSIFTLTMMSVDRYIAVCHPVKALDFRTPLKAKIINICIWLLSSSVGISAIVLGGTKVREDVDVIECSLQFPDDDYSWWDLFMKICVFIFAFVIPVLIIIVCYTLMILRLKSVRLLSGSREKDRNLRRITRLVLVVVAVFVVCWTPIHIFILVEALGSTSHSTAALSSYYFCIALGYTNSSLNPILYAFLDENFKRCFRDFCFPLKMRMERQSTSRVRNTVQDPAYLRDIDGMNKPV

calf OPRK = calf OPRK (Bos taurus, UniProt Q2KIP6); conditions: cited from earlier work
Chain of calf OPRK (Q2KIP6 whole entry): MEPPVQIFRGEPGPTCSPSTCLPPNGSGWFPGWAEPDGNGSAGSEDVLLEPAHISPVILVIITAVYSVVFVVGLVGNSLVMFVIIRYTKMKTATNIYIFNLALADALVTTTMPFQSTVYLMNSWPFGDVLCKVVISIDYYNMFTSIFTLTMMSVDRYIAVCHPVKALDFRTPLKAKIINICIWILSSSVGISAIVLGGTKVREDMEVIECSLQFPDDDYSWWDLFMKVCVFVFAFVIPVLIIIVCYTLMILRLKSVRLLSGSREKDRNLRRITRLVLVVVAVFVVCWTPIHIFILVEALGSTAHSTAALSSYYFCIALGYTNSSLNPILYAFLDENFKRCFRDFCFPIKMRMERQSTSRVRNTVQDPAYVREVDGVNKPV

[2] = Single ascending oral dose pharmacokinetics of noribogaine in healthy volunteers (plasma and urine, LCMSMS); conditions: for CL/F: mean (SD), n = 6
human OPRM [3] = biological target: T1, human OPRM (Homo sapiens, UniProt P35372); assay: biochemical; type: binding; set-up: expressed in transfected cells; host or cells: CHO-K1 (cell line provided by Dr. Toll, Torrey Pines Institute); membranes prepared in house
T1 sequence (P35372 whole entry): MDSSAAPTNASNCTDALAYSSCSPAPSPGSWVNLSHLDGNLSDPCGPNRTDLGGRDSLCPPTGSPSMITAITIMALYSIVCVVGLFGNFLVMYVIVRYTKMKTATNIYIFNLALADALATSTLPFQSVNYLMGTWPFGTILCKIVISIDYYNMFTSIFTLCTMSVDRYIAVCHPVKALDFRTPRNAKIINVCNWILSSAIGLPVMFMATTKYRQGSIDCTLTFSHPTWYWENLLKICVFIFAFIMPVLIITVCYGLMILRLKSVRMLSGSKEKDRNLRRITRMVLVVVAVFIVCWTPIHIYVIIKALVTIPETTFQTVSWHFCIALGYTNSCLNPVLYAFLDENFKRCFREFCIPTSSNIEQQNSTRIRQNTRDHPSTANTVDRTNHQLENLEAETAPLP

[4] = rats; centrally mediated; Baumann, Rothman et al. 2001; cited from earlier work
[5] = Treatment emergent adverse events in opioid-dependent patients, single dose
[6] = Safety and tolerability in healthy volunteers (adverse events, ECG, vital signs, oximetry); type: in vivo, human
Experimental: Pulse oximetry and capnography data were collected continuously using a GE Carescape B650 monitoring system from 2 hours prior to dosing and until six hours after dosing, and thereafter at 12, 24, 48 and 72 hours post-dosing. Additional oximetry data were collected at 120, 168 and 216 hours. Pupillary miosis was assessed by pupillometry. Dark-adapted pupil diameter was measured in triplicate using a Neuroptics PLR-200 pupillometer under standardized light intensity (<5 lux) pre-dose, and at 2, 4, 6, 12, 24, 48, 72, 96, 120, 168 and 216 hours post-dosing.
as §1

human OPRM [7] = biological target: T1, human OPRM; type: cell-based; set-up: host or cells: CHO-K1

CC[C@H]1CC2C[C@H]3c4[nH]c5ccc(O)cc5c4CCN(C2)C13 [Noribogaine, noribogaine]
analgesic effect in the cold pressor test [1]: no analgesic effect | ΔpKi = pKi(OPRK) − pKi(OPRM), OPRK Specificity (human OPRK; from literature (or literature/this work) values): 0.4 | ΔpKi = pKi(OPRK) − pKi(OPRM), OPRK Specificity (human OPRK; from values of this work): 0.3 | EC50 (OPRK): 265 nM | e-coupling (pKi-pEC50) (OPRK; Activation): −0.43 | e-coupling, Beta-Arrestin2 Pathway (OPRK; Activation): −0.43 | e-signal, Beta-Arrestin2 Pathway (OPRK; Activation): 0.13 | pEC50 (OPRK; Activation): 6.6 | Emax (OPRK; CHO-K1, read-out: Efficacy (Emax)): 12.6 ± 3% | inhibition of agonist response (OPRK; Dynorphin A at EC80): ~60% | e-coupling, Beta-Arrestin2 Pathway (OPRK; Inhibition): −0.44 | e-signal, Beta-Arrestin2 Pathway (OPRK; Inhibition): 0.60 | e-coupling (pKi-pKe) (OPRK; inhibitory component): −0.44 | Efficacy (inhibition) (OPRK; inhibitory component against Dynorphin A): −60~ % | Ki (calf OPRK; calf OPRK): 960 nM | pKi (calf OPRK; calf receptor, literature): 6.0 | CL/F ([2]; 3 mg single oral noribogaine): 41.4 (7.0) L/h | CL/F ([2]; 10 mg single oral noribogaine): 42.3 (12.0) L/h | CL/F ([2]; 30 mg single oral noribogaine): 46.9 (16.4) L/h | CL/F ([2]; 60 mg single oral noribogaine): 34.0 (11.4) L/h | dose relation of Cmax and AUC ([2]; 3-60 mg single oral doses): increased linearly with dose | Volume of distribution ([2]; across dose groups): 1417 to 3086 L | time of peak concentrations after oral noribogaine dosing ([2]; plasma, across dose groups): 2 to 3 h | pKi (human OPRM [3]): 5.8 | release of prolactin [4]: triggered the release of prolactin | Catheter Site Infection ([5]; 60 mg noribogaine (N = 6)): 0 | Catheter Site Pain ([5]; 60 mg noribogaine (N = 6)): 0 | Catheter Site Related Reaction ([5]; 60 mg noribogaine (N = 6)): 0 | Cellulitis ([5]; 60 mg noribogaine (N = 6)): 0 | Diarrhoea ([5]; 60 mg noribogaine (N = 6)): 0 | Diy Mouth ([5]; 60 mg noribogaine (N = 6)): 0 | Ear and Labyrinth Disorders ([5]; 60 mg noribogaine (N = 6)): 0 | Epistaxis ([5]; 60 mg noribogaine (N = 6)): 0 | Euphoric Mood ([5]; 60 mg noribogaine (N = 6)): 0 | General Disorders and Administration Site Conditions ([5]; 60 mg noribogaine (N = 6)): 0 | Hyperaesthesia ([5]; 60 mg noribogaine (N = 6)): 0 | Infections and Infestations ([5]; 60 mg noribogaine (N = 6)): 0 | Limb Discomfort ([5]; 60 mg noribogaine (N = 6)): 0 | Malaise ([5]; 60 mg noribogaine (N = 6)): 0 | Nausea ([5]; 60 mg noribogaine (N = 6)): 0 | Oropharyngeal Pain ([5]; 60 mg noribogaine (N = 6)): 0 | Pseudoparalysis ([5]; 60 mg noribogaine (N = 6)): 0 | Respiratory, Thoracic and Mediastinal Disorders ([5]; 60 mg noribogaine (N = 6)): 0 | Rhinorrhoea ([5]; 60 mg noribogaine (N = 6)): 0 | Skin Discomfort ([5]; 60 mg noribogaine (N = 6)): 0 | Skin Irritation ([5]; 60 mg noribogaine (N = 6)): 0 | Skin and Subcutaneous Tissue Disorders ([5]; 60 mg noribogaine (N = 6)): 0 | Somnoience ([5]; 60 mg noribogaine (N = 6)): 0 | Tinnitus ([5]; 60 mg noribogaine (N = 6)): 0 | Tremor ([5]; 60 mg noribogaine (N = 6)): 0 | Urinary Tract Infection ([5]; 60 mg noribogaine (N = 6)): 0 | Vomiting ([5]; 60 mg noribogaine (N = 6)): 0 | Back Pain ([5]; 120 mg noribogaine (N = 6)): 0 | Catheter Site Infection ([5]; 120 mg noribogaine (N = 6)): 0 | Catheter Site Related Reaction ([5]; 120 mg noribogaine (N = 6)): 0 | Depressed Mood ([5]; 120 mg noribogaine (N = 6)): 0 | Dry Eye ([5]; 120 mg noribogaine (N = 6)): 0 | Dyspepsia ([5]; 120 mg noribogaine (N = 6)): 0 | Euphoric Mood ([5]; 120 mg noribogaine (N = 6)): 0 | Limb Discomfort ([5]; 120 mg noribogaine (N = 6)): 0 | Malaise ([5]; 120 mg noribogaine (N = 6)): 0 | Musculoskeletal and Connective Tissue Disorders ([5]; 120 mg noribogaine (N = 6)): 0 | Psychiatric Disorders ([5]; 120 mg noribogaine (N = 6)): 0 | Somnoience ([5]; 120 mg noribogaine (N = 6)): 0 | Urinary Tract Infection ([5]; 120 mg noribogaine (N = 6)): 0 | Catheter Site Infection ([5]; 180 mg noribogaine (N = 6)): 0 | Catheter Site Pain ([5]; 180 mg noribogaine (N = 6)): 0 | Depressed Mood ([5]; 180 mg noribogaine (N = 6)): 0 | Diarrhoea ([5]; 180 mg noribogaine (N = 6)): 0 | Dry Eye ([5]; 180 mg noribogaine (N = 6)): 0 | Dyspepsia ([5]; 180 mg noribogaine (N = 6)): 0 | Ear and Labyrinth Disorders ([5]; 180 mg noribogaine (N = 6)): 0 | Epistaxis ([5]; 180 mg noribogaine (N = 6)): 0 | Euphoric Mood ([5]; 180 mg noribogaine (N = 6)): 0 | Hyperaesthesia ([5]; 180 mg noribogaine (N = 6)): 0 | Malaise ([5]; 180 mg noribogaine (N = 6)): 0 | Oropharyngeal Pain ([5]; 180 mg noribogaine (N = 6)): 0 | Pseudoparalysis ([5]; 180 mg noribogaine (N = 6)): 0 | Psychiatric Disorders ([5]; 180 mg noribogaine (N = 6)): 0 | Respiratory, Thoracic and Mediastinal Disorders ([5]; 180 mg noribogaine (N = 6)): 0 | Rhinorrhoea ([5]; 180 mg noribogaine (N = 6)): 0 | Skin Discomfort ([5]; 180 mg noribogaine (N = 6)): 0 | Skin Irritation ([5]; 180 mg noribogaine (N = 6)): 0 | Skin and Subcutaneous Tissue Disorders ([5]; 180 mg noribogaine (N = 6)): 0 | Somnoience ([5]; 180 mg noribogaine (N = 6)): 0 | Tinnitus ([5]; 180 mg noribogaine (N = 6)): 0 | Tremor ([5]; 180 mg noribogaine (N = 6)): 0 | hallucinatory effects ([5]; 60, 120 or 180 mg single dose): no hallucinatory effects | number of adverse events reported ([6]; 3 mg dose group, two subjects): five | adverse events, Mild ([6]; 3 mg noribogaine): Back pain; also recorded: Dizziness; also recorded: Epistaxis; also recorded: Headache | adverse events, Moderate ([6]; 3 mg noribogaine): Headache | number of adverse events reported ([6]; 10 mg dose group, single subject): one | adverse events, Mild ([6]; 10 mg noribogaine): Headache | number of adverse events reported ([6]; 30 mg dose group, single subject): one | adverse events, Mild ([6]; 30 mg noribogaine): Headache | oximetry, capnography, respiratory rate ([6]; 3-60 mg single oral doses): no changes in oximetry or capnography, or changes in respiratory rate | vital signs and safety laboratory tests ([6]; 3-60 mg single oral doses): no changes in vital signs or safety laboratory tests of note | QTcF values above 500 msec ([6]; all dose groups, any time): no QTcF values >500 msec | single increase in QTcF ([6]; one subject, 10 mg noribogaine, 24 hours post-dosing): > 60 ms | Efficacy (human OPRM [7]): 3% | Efficacy (inhibition) (human OPRM [7]): −100~ % | agonism of β-Arrestin-2 recruitment at OPRM (human OPRM [7]): not an agonist at OPRM | e-coupling (pKi-pKe) (human OPRM [7]): ~1.10 | inhibition of agonist response (human OPRM [7]): 60-100% | pEC50 (human OPRM [7]): 5.9
